In brackets after ≈: the same amount, converted by molar mass. Like-named read-outs stand apart in the source and are kept apart here.
Experiments:
Format in all cases: cell-based
S. aureus 209-P JC = assay: MIC by agar plate dilution method, S. aureus 209-P JC; details: Staphylococcus aureus, read-out: minimum inhibitory concentration (MIC)
Experimental: (§1) Test method: The MIC was measured by an agar plate dilution method in accordance with a standard method of Japan Chemotherapeutic Society (cf. Nippon Kagaku Ryoho Gakkaishi, 29(1), 76-79, 1981). Thus, the organisms incubated at 37° C. for 18 hours using sensitivity test broth (Nissei) was diluted to 10^6 CFU/ml using the same broth. […] As a control, enoxacin and ofloxacin were used in Tests 1 and 2, respectively.
(§2) The numbers of the inoculated bacteria were 10^6 in all cases and the unit of the MIC was micrograms/ml.

S. aureus Smith = assay: MIC by agar plate dilution method, S. aureus Smith; details: Staphylococcus aureus, read-out: minimum inhibitory concentration (MIC)
Experimental: as §1, §2

M. luteus ATCC 9341 = assay: MIC by agar plate dilution method, M. luteus ATCC 9341; details: Micrococcus luteus, read-out: minimum inhibitory concentration (MIC)
Experimental: as §1, §2

B. subtilis ATCC 6633 = assay: MIC by agar plate dilution method, B. subtilis ATCC 6633; details: Bacillus subtilis, read-out: minimum inhibitory concentration (MIC)
Experimental: as §1, §2

E. coli NIHJ JC-2 = assay: MIC by agar plate dilution method, E. coli NIHJ JC-2; details: Escherichia coli, read-out: minimum inhibitory concentration (MIC)
Experimental: as §1, §2

E. coli KC-14 = assay: MIC by agar plate dilution method, E. coli KC-14; details: Escherichia coli, read-out: minimum inhibitory concentration (MIC)
Experimental: as §1, §2

K. pneumoniae K-1966 = assay: MIC by agar plate dilution method, K. pneumoniae K-1966; details: Klebsiella pneumoniae, read-out: minimum inhibitory concentration (MIC)
Experimental: as §1, §2

E. cloacae No. 1 = assay: MIC by agar plate dilution method, E. cloacae No. 1; details: Enterobacter cloacae, read-out: minimum inhibitory concentration (MIC)
Experimental: as §1, §2

S. marcescens IFO 3736 = assay: MIC by agar plate dilution method, S. marcescens IFO 3736; details: Serratia marcescens, read-out: minimum inhibitory concentration (MIC)
Experimental: as §1, §2

P. vulgaris HX-19 = assay: MIC by agar plate dilution method, P. vulgaris HX-19; details: Proteus vulgaris, HX19, Test 1, inoculum 10^6, 37° C., 18 hours, read-out: minimum inhibitory concentration (MIC)
Experimental: as §1, §2

S. flexneri = assay: MIC by agar plate dilution method, S. flexneri; details: Shigella flexneri, 18 hours, read-out: minimum inhibitory concentration (MIC)
Experimental: as §1, §2

P. aeruginosa E-2 = assay: MIC by agar plate dilution method, P. aeruginosa E-2; details: Pseudomonas aeruginosa, read-out: minimum inhibitory concentration (MIC)
Experimental: as §1, §2

A. calcoaceticus 54 = assay: MIC by agar plate dilution method, A. calcoaceticus 54; details: read-out: minimum inhibitory concentration (MIC)
Experimental: as §1, §2

S. epidermidis = assay: MIC by agar plate dilution method, S. epidermidis; details: Staphylococcus epidermidis, Test 2, inoculum 10^6, 37° C., 18 hours, read-out: minimum inhibitory concentration (MIC)
Experimental: as §1, §2

Proteus mirabilis 181 = assay: MIC by agar plate dilution method, Proteus mirabilis 181; details: Test 2; Proteus mirabilis 181; inoculum 10^6; 37° C., 18 hours; read-out: minimum inhibitory concentration (MIC)
Experimental: as §1, §2

[1] = Test 1, S. aureus 209-P JC, inoculum 10^6, 37° C., 18 hours
[2] = Test 1, S. aureus Smith, inoculum 10^6, 37° C., 18 hours
[3] = ATCC9341, Test 1, M. luteus ATCC 9341, inoculum 10^6, 37° C., 18 hours
[4] = ATCC6633, Test 1, B. subtilis ATCC 6633, inoculum 10^6, 37° C., 18 hours
[5] = NIHJJC2, Test 1, E. coli NIHJ JC-2, inoculum 10^6, 37° C., 18 hours
[6] = KC14, Test 1, E. coli KC-14, inoculum 10^6, 37° C., 18 hours
[7] = K1966, Test 1, K. pneumoniae K-1966, inoculum 10^6, 37° C., 18 hours
[8] = Test 1, E. cloacae No. 1, inoculum 10^6, 37° C., 18 hours
[9] = IFO3736, Test 1, S. marcescens IFO 3736, inoculum 10^6, 37° C., 18 hours
[10] = E2, Test 1, P. aeruginosa E-2, inoculum 10^6, 37° C., 18 hours
[11] = Acinetobacter calcoaceticus, Test 1, A. calcoaceticus 54, inoculum 10^6, 37° C., 18 hours

Row | Compound | MIC (S. aureus 209-P JC; [1]) | MIC (S. aureus Smith; [2]) | MIC (M. luteus ATCC 9341; [3]) | MIC (B. subtilis ATCC 6633; [4]) | MIC (E. coli NIHJ JC-2; [5]) | MIC (E. coli KC-14; [6]) | MIC (K. pneumoniae K-1966; [7]) | MIC (E. cloacae No. 1; [8]) | MIC (S. marcescens IFO 3736; [9]) | MIC (P. vulgaris HX-19) | MIC (S. flexneri; Test 1, inoculum 10^6, 37° C.) | MIC (P. aeruginosa E-2; [10]) | MIC (A. calcoaceticus 54; [11]) | further results
1 | CC1Sc2c(C(=O)O)c(=O)c3cc(F)c(N4CCSCC4)cc3n21 (stereo not drawn) [(6)] | 0.05 µg/mL (≈ 0.136 µM) | ≤ 0.0063 µg/mL | 1.56 µg/mL (≈ 4.26 µM) | ≤ 0.0063 µg/mL | 0.2 µg/mL (≈ 0.546 µM) | 0.05 µg/mL (≈ 0.136 µM) | 0.1 µg/mL (≈ 0.273 µM) | 0.39 µg/mL (≈ 1.06 µM) | 0.78 µg/mL (≈ 2.13 µM) | ≤ 0.0063 µg/mL | 0.1 µg/mL (≈ 0.273 µM) | 0.78 µg/mL (≈ 2.13 µM) | 0.2 µg/mL (≈ 0.546 µM) | –
2 | CC1Sc2c(C(=O)O)c(=O)c3cc(Cl)c(N4CCNCC4)cc3n21 (stereo not drawn) [(7)] | 0.1 µg/mL (≈ 0.273 µM) | 0.2 µg/mL (≈ 0.547 µM) | 1.56 µg/mL (≈ 4.26 µM) | 0.2 µg/mL (≈ 0.547 µM) | 0.05 µg/mL (≈ 0.137 µM) | 0.025 µg/mL (≈ 0.0683 µM) | 0.025 µg/mL (≈ 0.0683 µM) | 0.05 µg/mL (≈ 0.137 µM) | 0.1 µg/mL (≈ 0.273 µM) | 0.025 µg/mL (≈ 0.0683 µM) | 0.0125 µg/mL (≈ 0.0342 µM) | 1.56 µg/mL (≈ 4.26 µM) | 3.13 µg/mL (≈ 8.56 µM) | –
3 | CC1Sc2c(C(=O)O)c(=O)c3cc(F)c(N4CCC(N)C4)cc3n21.CCS(=O)(=O)O (stereo not drawn) [Table 1 (8), 6-Fluoro-1-methyl-7-(3-amino-1-pyrrolidinyl)-4-oxo-4H-(1,3)thiazeto(3,2-a)quinoline-3-carboxylic acid ethanesulfonate] | – | – | – | – | – | – | – | – | – | ≤ 0.0063 µg/mL | ≤ 0.0063 µg/mL | – | – | MIC (S. aureus 209-P JC; 209P, 18 h): 0.025 µg/mL; MIC (S. aureus Smith; 18 h): 0.05 µg/mL; MIC (M. luteus ATCC 9341; ATCC9341, 18 h): 0.2 µg/mL; MIC (B. subtilis ATCC 6633; ATCC6633, 18 h): 0.05 µg/mL; MIC (E. coli NIHJ JC-2; NIHJJC2, 18 h): 0.05 µg/mL; MIC (E. coli KC-14; KC14, 18 h): ≤ 0.0063 µg/mL; MIC (K. pneumoniae K-1966; K1966, 18 h): 0.025 µg/mL; MIC (E. cloacae No. 1; NO.1, 18 h): 0.025 µg/mL; MIC (S. marcescens IFO 3736; IFO3736, 18 h): 0.1 µg/mL; MIC (P. aeruginosa E-2; E2, 18 h): 0.1 µg/mL; MIC (A. calcoaceticus 54; Acinetobacter calcoaceticus, 54, 18 h): 0.78 µg/mL
4 | CC1Sc2c(C(=O)O)c(=O)c3cc(F)c(N4CCN(C)CC4)c(N)c3n21 (stereo not drawn) [Table 1 (9), 8-Amino-6-fluoro-1-methyl-7-(4-methyl-1-piperazinyl)-4-oxo-4H-(1,3)thiazeto(3,2-a)quinoline-3-carboxylic acid] | 0.39 µg/mL (≈ 1.03 µM) | 0.2 µg/mL (≈ 0.529 µM) | 50 µg/mL (≈ 132 µM) | 0.2 µg/mL (≈ 0.529 µM) | 0.1 µg/mL (≈ 0.264 µM) | 0.05 µg/mL (≈ 0.132 µM) | 0.1 µg/mL (≈ 0.264 µM) | 0.2 µg/mL (≈ 0.529 µM) | 0.39 µg/mL (≈ 1.03 µM) | 0.025 µg/mL (≈ 0.0661 µM) | 0.05 µg/mL (≈ 0.132 µM) | 1.56 µg/mL (≈ 4.12 µM) | 0.78 µg/mL (≈ 2.06 µM) | –
5 | CC1Sc2c(C(=O)O)c(=O)c3cc(F)c(N4CCN(Cc5ccc(N)cc5)CC4)cc3n21 (stereo not drawn) [Table 1 (10), 7-(4-(4-Aminobenzyl)-1-piperazinyl)-6-fluoro-1-methyl-4-oxo-4H-(1,3)thiazeto(3,2-a)quinoline-3-carboxylic acid] | 0.05 µg/mL (≈ 0.11 µM) | ≤ 0.0063 µg/mL | 0.39 µg/mL (≈ 0.858 µM) | ≤ 0.0063 µg/mL | 0.2 µg/mL (≈ 0.44 µM) | 0.05 µg/mL (≈ 0.11 µM) | 0.2 µg/mL (≈ 0.44 µM) | 0.39 µg/mL (≈ 0.858 µM) | 0.56 µg/mL (≈ 1.23 µM) | 0.1 µg/mL (≈ 0.22 µM) | 0.1 µg/mL (≈ 0.22 µM) | 3.13 µg/mL (≈ 6.89 µM) | 0.39 µg/mL (≈ 0.858 µM) | –
6 | O=C(O)c1c2n(c3cc(N4CCNCC4)c(F)cc3c1=O)C(c1ccccc1)S2 (stereo not drawn) [Table 1 (11), 6-Fluoro-4-oxo-1-phenyl-7-(1-piperazinyl)-4H-(1,3)thiazeto(3,2-a)quinoline-3-carboxylic acid] | – | – | – | – | – | – | – | – | – | – | – | – | – | MIC (S. aureus 209-P JC; Test 2, S. aureus 209-P JC, inoculum 10^6, 37° C., 18 hours): 0.2 µg/mL (≈ 0.486 µM); MIC (M. luteus ATCC 9341; ATCC9341, Test 2, M. luteus ATTC 9341, inoculum 10^6, 37° C., 18 hours): 3.13 µg/mL (≈ 7.61 µM); MIC (B. subtilis ATCC 6633; ATCC6633, Test 2, B. subtilis ATCC 6633, inoculum 10^6, 37° C., 18 hours): 0.05 µg/mL (≈ 0.122 µM); MIC (E. coli NIHJ JC-2; NIHJJC2, Test 2, E. coli NIHJ JC-2, inoculum 10^6, 37° C., 18 hours): 0.025 µg/mL (≈ 0.0608 µM); MIC (K. pneumoniae K-1966; K1966, Test 2, K. pneumoniae K-1966, inoculum 10^6, 37° C., 18 hours): 0.025 µg/mL (≈ 0.0608 µM); MIC (S. marcescens IFO 3736; IFO3736, Test 2, S. Marcescens IFO 3736, inoculum 10^6, 37° C., 18 hours): 0.05 µg/mL (≈ 0.122 µM); MIC (S. flexneri; Test 2, inoculum 10^6, 37° C.): 0.025 µg/mL (≈ 0.0608 µM); MIC (P. aeruginosa E-2; E2, Test 2, P. aeruginosa E-2, inoculum 10^6, 37° C., 18 hours): 0.2 µg/mL (≈ 0.486 µM); MIC (S. epidermidis): 1.56 µg/mL (≈ 3.79 µM); MIC (Proteus mirabilis 181): 0.05 µg/mL (≈ 0.122 µM)
